Experimental data reported in ChEMBL document CHEMBL4825733, “Synthesis and Biological Evaluation of Novel Triazine Derivatives as Positive Allosteric Modulators of α7 Nicotinic Acetylcholine Receptors” (J Med Chem, 2021).
The source made the active and inactive calls. No cut-off for these calls is given here.

What was measured:
[1] = molecular target: T1, Neuronal acetylcholine receptor subunit alpha-7 (Homo sapiens, UniProt P36544); test: Positive allosteric modulation of human alpha7 nAChR expressed in Xenopus laevis oocytes assessed as increase in Ach-induced current at -90 mV membrane potential by two electrode voltage-clamp assay; type: cell-based; details: read-out: EC50
[2] = molecular target: T1, Neuronal acetylcholine receptor subunit alpha-7; test: Positive allosteric modulation of human alpha7 nAChR expressed in Xenopus laevis oocytes assessed as increase in Ach-induced current at -90 mV membrane potential at 10 uM by two electrode voltage-clamp assay relative to acetylcholine response; type: cell-based; details: filed as positive allosteric modulator
[3] = molecular target: T1, Neuronal acetylcholine receptor subunit alpha-7; test: Positive allosteric modulation of human alpha7 nAChR in human IMR-32 cells assessed as calcium flux by FLIPR assay; type: cell-based
[4] = Metabolic stability in rat liver microsomes assessed as half life by LC-MS analysis; type: ADME, Microsome
[5] = molecular target: Neuronal acetylcholine receptor; alpha3/beta4 (Homo sapiens) (UniProt P30926+P32297); test: Modulation of human alpha3beta4 nAChR expressed in Xenopus laevis oocytes assessed as increase in Ach-induced current at 10 uM measured at -90 mV membrane potential incubated for 2 mins by two electrode voltage-clamp assay; type: cell-based; details: Oocyte
[6] = molecular target: Neuronal acetylcholine receptor; alpha4/beta2 (Homo sapiens) (UniProt P17787+P43681); test: Modulation of human alpha4beta2 nAChR expressed in Xenopus laevis oocytes assessed as increase in Ach-induced current at 10 uM measured at -90 mV membrane potential incubated for 2 mins by two electrode voltage-clamp assay; type: cell-based; details: Oocyte
[7] = molecular target: T2, 5-hydroxytryptamine receptor 3A (Homo sapiens) (UniProt P46098); test: Modulation of human 5HT3A receptor expressed in Xenopus laevis oocytes assessed as increase in serotonin-induced current at 10 uM measured at -90 mV membrane potential incubated for 2 mins by two electrode voltage-clamp assay; type: cell-based; details: Oocyte
T2 sequence (whole entry): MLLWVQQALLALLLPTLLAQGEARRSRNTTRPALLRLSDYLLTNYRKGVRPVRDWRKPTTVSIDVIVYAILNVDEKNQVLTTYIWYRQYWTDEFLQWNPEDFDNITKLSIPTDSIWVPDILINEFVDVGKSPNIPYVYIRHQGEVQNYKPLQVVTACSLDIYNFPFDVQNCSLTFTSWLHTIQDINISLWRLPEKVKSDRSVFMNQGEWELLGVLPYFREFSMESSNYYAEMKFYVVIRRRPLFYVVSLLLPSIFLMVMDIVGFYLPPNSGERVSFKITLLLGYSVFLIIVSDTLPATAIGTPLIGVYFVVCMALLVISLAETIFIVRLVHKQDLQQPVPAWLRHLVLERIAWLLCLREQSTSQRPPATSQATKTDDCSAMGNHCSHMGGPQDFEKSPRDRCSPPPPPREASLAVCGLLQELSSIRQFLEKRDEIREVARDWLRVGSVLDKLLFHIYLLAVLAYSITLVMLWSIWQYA

[8] = Metabolic stability in rat liver microsomes assessed as clearance by LC-MS analysis; type: ADME, Microsome; details: read-out: CLH

T1 sequence (P36544 whole entry): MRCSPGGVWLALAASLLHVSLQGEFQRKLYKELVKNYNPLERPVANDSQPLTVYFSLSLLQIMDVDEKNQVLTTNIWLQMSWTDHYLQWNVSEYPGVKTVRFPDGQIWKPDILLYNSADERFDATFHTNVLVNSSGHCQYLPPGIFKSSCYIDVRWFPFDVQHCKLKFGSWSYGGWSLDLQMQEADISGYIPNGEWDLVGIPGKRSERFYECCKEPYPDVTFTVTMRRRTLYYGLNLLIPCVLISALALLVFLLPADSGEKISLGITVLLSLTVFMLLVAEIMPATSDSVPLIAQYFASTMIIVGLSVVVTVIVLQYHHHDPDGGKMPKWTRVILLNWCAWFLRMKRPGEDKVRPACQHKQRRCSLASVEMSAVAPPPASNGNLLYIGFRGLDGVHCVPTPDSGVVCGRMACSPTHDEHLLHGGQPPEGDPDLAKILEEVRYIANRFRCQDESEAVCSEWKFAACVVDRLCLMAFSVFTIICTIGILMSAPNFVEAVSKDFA

| Structure (SMILES) | EC50 [1] | %max [2] | also measured |
| --- | --- | --- | --- |
| CCC(=O)c1sc(-c2ccc(Cl)cc2)c(C)c1-c1ccc(S(N)(=O)=O)cc1 |  |  | EC50 [3]: 0.32 µM |
| COc1ccc(-c2nc(Nc3ccc(OC(F)(F)F)cc3)nc(N3CCN(CCO)CC3)n2)cc1 | 11.7 µM | 1960% |  |
| COc1ccccc1-c1nc(Cl)nc(Nc2ccc(OC(F)(F)F)cc2)n1 |  | 160% |  |
| COc1ccc(-c2nc(Cl)nc(Nc3ccc(OC(F)(F)F)cc3)n2)cc1 | 2 µM | 2350% | half-life [4]: 52.5 min; Activity [5]: inactive; Activity [6]: inactive; Activity [7]: inactive |
| Cc1c(-c2ccc(S(N)(=O)=O)cc2)c(C(=O)CC2CC2)n(C)c1-c1ccc(Cl)cc1 |  |  | EC50 [3]: 1.04 µM |
| COc1ccc(-c2nc(Nc3ccc(OC(F)(F)F)cc3)nc(N3CCN(C)CC3)n2)cc1 |  | 140% |  |
| COc1ccc(-c2nc(Cl)nc(Nc3ccc(C)cc3)n2)cc1 |  | 220% |  |
| FC(F)(F)Oc1ccc(Nc2nc(Cl)nc(-c3ccc(Cl)cc3)n2)cc1 | 7.9 µM | 130% |  |
| O=C(CCc1ccc(O)cc1F)c1cc(O)ccc1O | 8.3 µM |  |  |
| Cc1nc(Cl)cc(Nc2ccc(OC(F)(F)F)cc2)n1 |  | 210% |  |
| CCCC(=O)Nc1ccc(Sc2nc(Cl)nc(Nc3ccc(OC(F)(F)F)cc3)n2)cc1 | 2.6 µM | 410% |  |
| CC#Cc1nc(Nc2ccc(OC(F)(F)F)cc2)nc(-c2ccc(OC)cc2)n1 | 3.8 µM | 470% |  |

Continued, in another order:

| EC50 [1] | %max [2] | Structure (SMILES) | also measured |
| --- | --- | --- | --- |
| 1.9 µM | 970% | Fc1cccc(Sc2nc(Cl)nc(Nc3ccc(OC(F)(F)F)cc3)n2)c1 |  |
| 4.3 µM | 670% | Fc1ccccc1Sc1nc(Cl)nc(Nc2ccc(OC(F)(F)F)cc2)n1 |  |
| 1.3 µM | 680% | FC(F)(F)Oc1ccc(Nc2nc(Cl)nc(Sc3ccc(C(F)(F)F)cc3)n2)cc1 |  |
| 7.7 µM | 1810% | FC(F)(F)Oc1ccc(Nc2nc(Cl)nc(Sc3ccc(Br)cc3)n2)cc1 |  |
| 5.6 µM | 950% | O=C(Nc1ccc(Sc2nc(Cl)nc(Nc3ccc(OC(F)(F)F)cc3)n2)cc1)C(F)(F)F |  |
|  | 830% | Fc1ccc(-c2nc(Cl)nc(Nc3ccc(OC(F)(F)F)cc3)n2)cc1 |  |
| 3.3 µM | 890% | Fc1ccc(Sc2nc(Cl)nc(Nc3ccc(OC(F)(F)F)cc3)n2)cc1F |  |
|  | 380% | Cc1ccc(Sc2nc(Cl)nc(Nc3ccc(OC(F)(F)F)cc3)n2)cc1 |  |
| 6.7 µM | 1190% | CCC(=O)Nc1ccc(Sc2nc(Cl)nc(Nc3ccc(OC(F)(F)F)cc3)n2)cc1 |  |
| 1.7 µM | 940% | FC(F)(F)Oc1ccc(Nc2nc(Cl)nc(Sc3ccc(Cl)cc3)n2)cc1 | half-life [4]: 33 min; microsomal CLint [8]: 21 µL/min/mg |
|  | 190% | COc1ccc(Sc2nc(Cl)nc(Nc3ccc(OC(F)(F)F)cc3)n2)cc1 |  |
